The test system of one test is β-adrenergic receptors. The test is described as follows: Isoproterenol-induced cAMP synthesis in rat C6 glioma (anti-inflammatory activity). Format: cell-based. How it is done:
Anti-inflammatory activity of several of the 2-substituted 6-benzylaminopurine riboside derivatives of this invention was determined; kinetin riboside was also evaluated as a control. Rat C6 glioma (ATCC No. CCL107) was cultivated in monolayer in serum-free chemically defined medium containing Ham's F10/minimal essential medium (1:1 v/v), 2 mM L-glutamine, 1% (v/v) minimal essential medium vitamins (100×), 1% (v/v) minimal essential medium nonessential amino acids (100×), 100 U/mL penicillin, […], and 30 nM sodium selenite. Incubation was performed at 37° C. in a humidified atmosphere. The assays were performed in the logaritmic growth phase at a density of 2.5×10^5 cells/cm^2.
Intracellular cAMP synthesis was induced by addition of 5 mM (−)-isoproterenol; various amounts of test compounds were added at the same time as the (−)-isoproterenol. After […] incubation at 37° C., the medium was removed and the cellular amount of cAMP was determined using the cAMP-enzyme immunoassay kit from Amersham. The I50 value was determined from a dose-response curve in duplicate. The effect of nine purine analogues was measured after simultaneous addition with isoproterenol.
As P2Y1-like and A2 purinergic receptors, negatively and positively coupled to adenylate cyclase respectively, are present on rat C6 glioma as to be determined if the modulation of the synthesis of cAMP is due to inhibition of the activation of β-adrenergic receptors by isoproterenol are due to activation of purinergic receptors.

Test [1] has as its system breast carcinoma cell line MCF-7. The test is described as follows: In vitro cytotoxicity, Calcein AM assay, MCF7. The format is cell-based, human. Particulars: Homo sapiens, MCF7, 72 hours. An excerpt:
(§1) Low cytotoxicity of the compounds is the major property determining the cosmetic use. One of the parameters used, as the basis for cytotoxicity assays, is the metabolic activity of viable cells. For example, a microtiter assay, which uses the Calcein AM, is now widely used to quantitate cell proliferation and cytotoxicity. For instance, this assay is used in drug screening programs and in chemosensitivity testing. Because only metabolically active cells cleave Calcein AM, these assays detect viable cells exclusively. The quantity of […] Calcein AM corresponds to the number of vital cells in the culture.
(§2) Human T-lymphoblastic leukemia cell line CEM; promyelocytic HL-60 and monocytic U937 leukemias; breast carcinoma cell lines MCF-7, BT549, MDA-MB-231; glioblastoma U87MG cells; cervical carcinoma cells HELA; sarcoma cells U2OS and Saos2; hepatocellular carcinoma HepG2; mouse fibroblasts NIH3T3; mouse immortalized bone marrow macrophages B2.4 and B10A.4; P388D1 and L1210 leukemia; B16 and B16F10 melanomas; human osteosarcoma HOS; human myeloid leukemia K-562; human skin melanoma G-361 were used for routine screening of compounds. The cells were maintained in Nunc/Corning 80 cm^2 plastic tissue culture flasks and cultured in cell culture medium (DMEM with 5 g/l glucose, 2 mM glutamine, 100 U/mL penicillin, 100 μg/mL streptomycin, 10% fetal calf serum and sodium bicarbonate).
(§3) The cell suspensions that were prepared and diluted according to the particular cell type and the expected target cell density (2.500-30.000 cells per well based on cell growth characteristics) were added by pipette ([…]) into 96/well microtiter plates. Inoculates were allowed a pre-incubation period of 24 hours at 37° C. and 5% CO2 for stabilisation. Four-fold dilutions of the intended test concentration were added at time zero in 20 μl aliquots to the microtiter plate wells. Usually, the compound tested was evaluated at six 4-fold dilutions. In routine testing, the highest well concentration was 100 μM, but it can be the matter of change dependent on the agent. All drug concentrations were examined in duplicates. Incubations of cells with the tested compounds lasted for 72 hours at 37° C., in 5% CO2 atmosphere and 100% humidity. At the end of the incubation period, the cells were assayed by using Calcein AM. Ten microliters of the stock solution were pipetted into each well and incubated for 1 hour. Fluorescence (FD) was measured with the Labsystem FIA Reader Fluoroscan Ascent (UK). The tumour cell survival (GI50) was calculated using the following equitation: TCS=(FDdrug exposed well/mean FDeontrol wells)×100%. The GI50 value, the drug concentration lethal to 50% of the tumour cells, was calculated from the obtained dose response curves.
(§4) Zero cytotoxicity of the novel compounds is the basic prerequisite for agricultural and tumor-unrelated applications. The cytoxicity of the novel compounds was tested on a panel of cell lines of different histogenetic and species origin (Table 9). We show herein that equal activities were found in all tumour cell lines tested, however, the non-malignant cells, e.g. NIH3T3 fibroblasts and normal human lymphocytes, were resistant to 2,6-disubstituted purine ribosides induced cytotoxicity. The compounds listed in Tab. 9 can be divided into 2 groups. The first group contains “classical cytokinins” represented by 6-substituted purine ribosides (which are known in the prior art). The second group contains the novel 2,6-disubstituted derivatives of these compounds. […] GI50 for NIH3T3 fibroblasts and normal human lymphocytes was always higher than 100 μM. The novel derivatives show no toxicity to normal and tumour cells in concentrations about 100 μM and thus are more suitable for agricultural applications than “classical cytokinins” (6-substituted purine riboside derivatives).

Test [2] concerns human skin melanoma G-361. The test is described as follows: In vitro cytotoxicity, Calcein AM assay, G-361. The format is cell-based. Conditions: Homo sapiens, G-361, 72 hours.
Source text: as §1, §2, §3, §4

Another test has as its system neutrophils. Kind of test: Neutrophil IL8 release, ELISA. Format: cell-based. Particulars: Homo sapiens, primed neutrophils, ELISA (FIG. 3). How it is done:
Neutrophils were cultured at 2×10^6 cells/ml in RPMI1640 medium containing human serum antibiotics and 20 ng/ml TNFα for 10 minutes prior to addition of a range of concentrations of compound 10. Release of IL8 was monitored after a 4 h period by ELISA. Data are mean of duplicate measurements representative of 5 separate experiments.
Anti-inflammatory effects against neutrophils were determined by assessing effects of several of the compounds on neutrophil inflammatory activity (superoxide generation, secretion of chemoattractant IL8 and degranulation to release myeloperoxidase). Neutrophils were isolated from human blood to a purity of greater than 95% and were cultured in RPMI1640 medium containing 2% human AB serum, 2 mM L-glutamine and antibiotics (100 U/ml penicillin, […] streptomycin). Neutrophils were primed for 30 minutes with 50 ng/ml GM-CSF prior to treatment with the bacterial stimulant fMLP (100 ng/ml) and measurement of superoxide generation in a lucigenin based assay (see Pongracz J and Lord J M 1998, Biochem. Biophys. Res. Commun. 247, 624-629) and release of IL8 and myeloperoxidase using an ELISA method. The novel compounds were added to the culture at a range of concentrations (0.1-100 μM) 10 minutes prior to addition of fMLP. […]
(An ELISA detects its analyte on a solid surface through an enzyme-linked reagent.)

SMILES strings stand for the structures.

In general, GI50 refers to the concentration that inhibits growth by half. With `COc1cccc(CNc2nc(Cl)nc3c2ncn3C2OC(CO)C(O)C2O)c1O` (centres unmarked) [Compound 10, 2-Chloro-6-(2-hydroxy-3-methoxybenzylamino)purine riboside], the “Effect (modulation of isoproterenol-induced cAMP synthesis)” value in the test with β-adrenergic receptors (added simultaneously with (−)-isoproterenol) was “inhibition”. For the same molecule, the IC50 came to 7.5 ± 1 µM in the test with β-adrenergic receptors (cellular cAMP by enzyme immunoassay, dose-response curve in duplicate, read-out: I50) and 0.05 µM in the test with neutrophils. The GI50 in test [1] and in test [2] was above 100 µM each time.

The values are drawn from patent US20140066394A1, “Substituted 6-(Benzylamino) Purine Riboside Derivatives, Use Thereof and Compositions Containing These Derivatives” (Biopatterns, S.R.O, priority 2009, published 2014).
